Results taken from ChEMBL document CHEMBL1138055, “Tetraoxane antimalarials and their reaction with Fe(II)” (J Med Chem, 2006).

Assays:
Plasmodium falciparum [1] = tested on: Plasmodium falciparum
Description: (§1) Antimalarial activity against Plasmodium falciparum D6

Plasmodium falciparum [2] = tested on: Plasmodium falciparum; remark: listed apart in the source
Description: (§2) Antimalarial activity against Plasmodium falciparum W2

Plasmodium falciparum [3] = tested on: Plasmodium falciparum; remark: listed apart in the source
Description: (§3) Antimalarial activity against Plasmodium falciparum TM91C235

UO-31 = experiment: Antiproliferative activity against human UO31 cell line after 48 hrs; assay type: functional; settings: Homo sapiens, UO-31, 48 h; for CC50: read-out: LC50 (the source's name)
LOX IMVI = experiment: Antiproliferative activity against human LOX IMVI cell line after 48 hrs; assay type: functional
IGROV-1 = experiment: Antiproliferative activity against human IGROV1 cell line after 48 hrs; assay type: functional; settings: for CC50: read-out: LC50 (the source's name)
Plasmodium falciparum [4] = experiment: microbe, parasite or virus in culture; settings: W2
Description: as §2

Plasmodium falciparum [5] = experiment: microbe, parasite or virus in culture; settings: D6
Description: as §1

Plasmodium falciparum [6] = experiment: microbe, parasite or virus in culture; settings: TM91C235
Description: as §3

SK-MEL-2 = experiment: Antiproliferative activity against human SK-MEL2 cell line after 48 hrs; assay type: functional; settings: SK-MEL-2, 48 h
Mus musculus [7] = experiment: Effect on survival of CD1 mice (Mus musculus) infected with Plasmodium berghei KBG173 at 200 mg/kg/day, perorally; assay type: functional; settings: route oral
HOP-62 = experiment: Antiproliferative activity against human HOP62 cell line after 48 hrs; assay type: functional; settings: Homo sapiens, HOP-62, 48 h
UACC-62 = experiment: Antiproliferative activity against human UACC62 cell line after 48 hrs; assay type: functional; settings: UACC-62, 48 h
PC-3 = experiment: Antiproliferative activity against human PC3 cell line after 48 hrs; assay type: functional; settings: PC-3, 48 h
EKVX = experiment: Antiproliferative activity against human EKVX cell line after 48 hrs; assay type: functional; settings: Homo sapiens, EKVX, 48 h
SNB-75 = experiment: Antiproliferative activity against human SNB75 cell line after 48 hrs; assay type: functional; settings: SNB-75, 48 h
ACHN = experiment: Antiproliferative activity against human ACHN cell line after 48 hrs; assay type: functional
DU-145 = experiment: Antiproliferative activity against human DU145 cell line after 48 hrs; assay type: functional; settings: DU-145, 48 h
Mus musculus [8] = experiment: Effect on survival of CD1 mice (Mus musculus) infected with Plasmodium berghei KBG173 at 600 mg/kg/day, perorally; assay type: functional, organism-based; design: route oral; settings: route oral
Mus musculus [9] = experiment: Effect on survival of CD1 mice (Mus musculus) infected with Plasmodium berghei KBG173 at 50 mg/kg/day, perorally; assay type: functional; settings: route oral
COLO 205 = experiment: Antiproliferative activity against human COLO 205 cell line after 48 hrs; assay type: functional; settings: Homo sapiens, COLO 205, 48 h
HCT-15 = experiment: Antiproliferative activity against human HCT15 cell line after 48 hrs; assay type: functional; settings: HCT-15, 48 h
[10] = read-out: LC50 (the source's name)

SMILES: CCCOC(=O)CC[C@@H](C)[C@H]1CC[C@H]2[C@@H]3[C@H](OC(C)=O)C[C@@H]4CC5(CC[C@]4(C)[C@H]3C[C@H](OC(C)=O)[C@]12C)OOC1(CCC(C(=O)OCCC)CC1)OO5 (stereo in doubt; 5b)
- IC50 (Plasmodium falciparum [1]): 30.3 nM
- IC90 (Plasmodium falciparum [1]): 47.4 nM
- IC50 (Plasmodium falciparum [2]): 41.4 nM
- IC90 (Plasmodium falciparum [2]): 83.5 nM
- IC50 (Plasmodium falciparum [3]): 42.2 nM
- IC90 (Plasmodium falciparum [3]): 75.8 nM

SMILES: CC(=O)O[C@H]1C[C@H]2[C@@H]([C@H](OC(C)=O)C[C@@H]3CC4(CC[C@@]32C)OOC2(CCC(C(=O)O)CC2)OO4)[C@@H]2CC[C@H]([C@H](C)CCC(=O)O)[C@@]12C (stereo in doubt; 6a)
- IC50 (Plasmodium falciparum [1]): 98.3 nM
- IC90 (Plasmodium falciparum [1]): 147 nM
- GI50 (UO-31): 1740 nM
- TGI (UO-31): 3650 nM
- CC50 (UO-31): 7660 nM
- IC50 (Plasmodium falciparum [2]): 135 nM
- IC90 (Plasmodium falciparum [2]): 156 nM
- IC50 (Plasmodium falciparum [3]): 135 nM
- IC90 (Plasmodium falciparum [3]): 257 nM

SMILES: CCCOC(=O)CC[C@@H](C)[C@H]1CC[C@H]2[C@@H]3[C@H](OC(C)=O)C[C@@H]4CC5(CC[C@]4(C)[C@H]3C[C@H](OC(C)=O)[C@]12C)OOC1(CCC(C(=O)OCCC)CC1)OO5 (stereo in doubt; 5a)
- GI50 (LOX IMVI): 1090 nM
- TGI (LOX IMVI): 2740 nM
- CC50 (LOX IMVI; [10]): 6910 nM
- IC50 (Plasmodium falciparum [1]): 6.7 nM
- IC90 (Plasmodium falciparum [1]): 9.4 nM
- GI50 (IGROV-1; Homo sapiens, IGROV-1, 48 h): 1990 nM
- TGI (IGROV-1; Homo sapiens, IGROV-1, 48 h): 6160 nM
- CC50 (IGROV-1; Homo sapiens, IGROV-1, 48 h): > 100000 nM
- GI50 (UO-31): 1150 nM
- TGI (UO-31): 2440 nM
- CC50 (UO-31): 5190 nM
- IC50 (Plasmodium falciparum [2]): 9 nM
- IC90 (Plasmodium falciparum [2]): 17.4 nM
- IC50 (Plasmodium falciparum [3]): 8.8 nM
- IC90 (Plasmodium falciparum [3]): 18 nM

SMILES: CCCNC(=O)CC[C@@H](C)[C@H]1CC[C@H]2[C@@H]3[C@H](OC(C)=O)C[C@@H]4CC5(CC[C@]4(C)[C@H]3C[C@H](OC(C)=O)[C@]12C)OOC1(CCC(C(=O)NCCC)CC1)OO5 (stereo in doubt; 10)
- IC50 (Plasmodium falciparum [1]): 38.5 nM
- IC90 (Plasmodium falciparum [1]): 56 nM
- IC90 (Plasmodium falciparum [4]): 78 nM
- IC50 (Plasmodium falciparum [2]): 58.3 nM
- IC50 (Plasmodium falciparum [3]): 52.3 nM
- IC90 (Plasmodium falciparum [3]): 127 nM

SMILES: O[C@@H](c1cc(C(F)(F)F)nc2c(C(F)(F)F)cccc12)[C@H]1CCCCN1 [MEFLOQUINE]
- IC50 (Plasmodium falciparum [5]): 10.5 nM
- IC90 (Plasmodium falciparum [5]): 21.7 nM
- IC50 (Plasmodium falciparum [6]): 16.4 nM
- IC90 (Plasmodium falciparum [6]): 65.7 nM
- IC50 (Plasmodium falciparum [4]): 3.1 nM
- IC90 (Plasmodium falciparum [4]): 8.4 nM

SMILES: CC(=O)O[C@H]1C[C@H]2[C@@H]([C@H](OC(C)=O)C[C@@H]3CC4(CC[C@@]32C)OOC2(CCC(C(=O)O)CC2)OO4)[C@@H]2CC[C@H]([C@H](C)CCC(=O)O)[C@@]12C (stereo in doubt; 6b)
- IC50 (Plasmodium falciparum [1]): > 300 nM
- IC90 (Plasmodium falciparum [1]): > 300 nM
- IC90 (Plasmodium falciparum [6]): > 300 nM
- IC90 (Plasmodium falciparum [4]): > 300 nM
- IC50 (Plasmodium falciparum [2]): > 300 nM
- IC50 (Plasmodium falciparum [3]): > 300 nM

SMILES: CC(=O)O[C@H]1C[C@H]2[C@@H]([C@H](OC(C)=O)C[C@@H]3CC4(CC[C@@]32C)OOC2(CCC(C)CC2)OO4)[C@@H]2CC[C@H]([C@H](C)CCC(N)=O)[C@@]12C (stereo in doubt; 17)
- GI50 (SK-MEL-2): 1710 nM
- TGI (SK-MEL-2): 3200 nM
- CC50 (SK-MEL-2; [10]): 6010 nM
- Activity (Mus musculus [7]): 21.8 days
- IC50 (Plasmodium falciparum [1]): 20 nM
- GI50 (IGROV-1): 490 nM
- TGI (IGROV-1; Homo sapiens, IGROV-1, 48 h): 1840 nM
- CC50 (IGROV-1; Homo sapiens, IGROV-1, 48 h): 4950 nM
- GI50 (HOP-62): 1070 nM
- TGI (HOP-62): 2310 nM
- CC50 (HOP-62; [10]): 4980 nM
- GI50 (UACC-62): 1850 nM
- TGI (UACC-62): 3990 nM
- CC50 (UACC-62; [10]): 8590 nM
- GI50 (UO-31): 1260 nM
- TGI (UO-31): 2640 nM
- CC50 (UO-31): 5500 nM
- GI50 (PC-3): 1970 nM
- TGI (PC-3): 4290 nM
- CC50 (PC-3; [10]): 9310 nM
- GI50 (EKVX): 1430 nM
- LC50 (EKVX): 5410 nM
- TGI (EKVX): 2780 nM
- GI50 (SNB-75): 1980 nM
- TGI (SNB-75): 4050 nM
- CC50 (SNB-75; [10]): 8280 nM
- LC50 (ACHN): 5730 nM
- GI50 (ACHN; Homo sapiens, ACHN, 48 h): 1500 nM
- TGI (ACHN; Homo sapiens, ACHN, 48 h): 2930 nM
- IC50 (Plasmodium falciparum [2]): 14.1 nM
- GI50 (DU-145): 1820 nM
- TGI (DU-145): 3260 nM
- CC50 (DU-145; [10]): 5850 nM
- Activity (Mus musculus [8]): 30 days
- Activity (Mus musculus [9]): 21.2 days
- GI50 (COLO 205): 1690 nM
- TGI (COLO 205): 3120 nM
- CC50 (COLO 205; [10]): 5760 nM
- GI50 (HCT-15): 1710 nM
- TGI (HCT-15): 3430 nM
- CC50 (HCT-15; [10]): 6860 nM
